From paper doi:10.1101/2022.01.25.477728v2 (biorxiv, 2022) come the findings set out here.

In the assay the target is T1, TcBDF2 / TcBD2 (TcBDF2HA) (Trypanosoma cruzi, UniProt A0A2V2V5V1).
T1 sequence (A0A2V2V5V1 2-119): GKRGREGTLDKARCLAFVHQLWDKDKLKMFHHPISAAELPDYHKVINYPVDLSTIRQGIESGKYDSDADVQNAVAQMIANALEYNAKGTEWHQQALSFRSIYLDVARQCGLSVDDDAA
Briefly: intrinsic tryptophan fluorescence quenching. Format: binding.

As a reminder, the Kd is the concentration at which binding is half-saturated. In the case of `CCOC(=O)Nc1cc(-c2ccc(C)c(NS(C)(=O)=O)c2)nn2c(C)nnc12` [Bromosporine], the Kd is ~14 µM. Consider `COc1cc(OC)c2c(=O)[nH]c(-c3cc(C)c(OCCO)c(C)c3)nc2c1` [RVX-208], for which the Kd is > 150 µM. For `COc1cc2c(cc1-c1c(C)noc1C)ncc1[nH]c(=O)n([C@H](C)c3ccccn3)c12` [iBET-151], the Kd was ~14 µM.
